From patent US10577362B2, “Substituted 2, 4-diamino-quinoline derivatives for use in the treatment of proliferative diseases” (GENOSCIENCE PHARMA, priority 2016, dated 2020)

What was measured:
[1] = test system: HCT-116 (colorectal carcinoma) cell line; assay: CellTiter-Glo luminescent cell viability assay, HCT-116; format: cell-based, human; conditions: Homo sapiens, 72 h; for viability at 4 µM: HCT-116, compound at 4 μM; for viability at 10 µM: HCT-116, compound at 10 μM
Method in brief: (§1)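 Luminescent signal, normalised to diluent-treated cultures, defines % viability; EC50 is the concentration lowering it to 50%. Cells had been exposed to compound for 72 h at 37 °C in medium with 10% FBS, at a constant H2O or DMSO percentage.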

[2] = test system: PANC-1 (prancreatic carcinoma) cell line; assay: CellTiter-Glo luminescent cell viability assay, PANC-1; format: cell-based; conditions: Homo sapiens, 72 h, % of signal of diluent-treated cultures; for viability at 4 µM: PANC-1, 4 μM; for viability at 10 µM: PANC-1, 10 μM
Experimental: All cell lines were maintained in medium containing 1% penicillin-streptomycin (Dutscher, P06-07100) and 10% Fetal Bovine Serum (Hyclone Dutscher, RZK35922) cultured at 37° C. with 5% CO2. HepG2 (hepatocellular carcinoma), cell line was cultured in Dulbecco's modified Eagle's medium low glucose (Gibco, 21885025), Huh7 (hepatocellular carcinoma), HCT-116 (colorectal carcinoma), PANC-1 (prancreatic carcinoma) and A375 (malignant melanoma) cell lines were cultured in Dulbecco's modified Eagle's medium (Dutscher, L0103). MOLM-14 (acute myeloid leukemia) cell line was maintained in MEM alpha medium (Gibco, 22561-021). 786-0 (renal adenocarcinoma) cell lines were maintained in RPMI 1640 medium (Dutscher, L0498).
Cell viability was measured using the CellTiter-Glo® luminescent cell viability assay as described by the manufacturer (Promega, Ref G7571) using an Infinite F200Pro luminometer (Tecan). Briefly, for adherent cells, cells were plated onto 96-well plates (white with clear bottom) in 90 μL of media per well and were allowed to grow overnight before the assay. For cells growing in suspension, cells were plated onto 96-well plates 1 h before the assay.
Compounds were resuspended in H2O or DMSO and added at different concentrations to each well, and cell cultures were incubated for 72 h. Each diluent (H2O or DMSO) were used as a control, and all compounds were tested in a constant percentage of H2O or DMSO. On the day of the reading, plates are equilibrated 30 min at room temperature before the addition of 100 μL of CellTiter-Glo® and luminescence was measured using an Infinite F200Pro (Tecan). % cell viability were expressed as a percentage of the signal obtained for cell cultures treated with diluent. EC50 values were determined as the dose of compound required to reduce luminescent values to 50% of the signal obtained for cell cultures treated with diluent. The experimental data were analyzed using a computer program, Graphpad Prism v5 (GraphPad Software, Inc. La Jolla, Calif.). All points were at least done in duplicate.

[3] = test system: Huh7 (hepatocellular carcinoma) cell line; assay: CellTiter-Glo luminescent cell viability assay, Huh7; format: cell-based, human; conditions: Homo sapiens, Huh-7, 72 h; for viability at 4 µM: Huh7, compound at 4 μM; for viability at 10 µM: Huh7, compound at 10 μM
Method in brief: (§2)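 Adherent cells grow overnight, or suspension cells are seeded 1 h ahead; compound dilutions are then added and plates incubated 72 h at 37 °C. After 30 min at room temperature, CellTiter-Glo reagent is added and luminescence recorded. EC50 derives from signal relative to diluent control.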

[4] = test system: 786-O (renal adenocarcinoma) cell line; assay: CellTiter-Glo luminescent cell viability assay, 786-O; format: cell-based, human; conditions: Homo sapiens, 786-0, 786-O, 72 h; for viability at 4 µM: compound at 4 μM; for viability at 10 µM: compound at 10 μM
Method in brief: as §1

[5] = test system: HepG2 (hepatocellular carcinoma) cell line; assay: CellTiter-Glo luminescent cell viability assay, HepG2; format: cell-based, human; conditions: Homo sapiens, HepG2, HepG, 72 h; for viability at 4 µM: compound at 4 μM; for viability at 10 µM: compound at 10 μM
Method in brief: as §2

[6] = test system: A375 (malignant melanoma) cell line; assay: CellTiter-Glo luminescent cell viability assay, A375; format: cell-based, human; conditions: Homo sapiens, A-375, 72 h; for viability at 4 µM: A375, compound at 4 μM; for viability at 10 µM: A375, compound at 10 μM
Method in brief: as §1

[7] = test system: MOLM-14 (acute myeloid leukemia) cell line; assay: CellTiter-Glo luminescent cell viability assay, MOLM-14; format: cell-based, human; conditions: Homo sapiens, 72 h; for viability at 4 µM: MOLM-14, compound at 4 μM; for viability at 10 µM: MOLM-14, compound at 10 μM
Method in brief: as §2

Structure (SMILES)	viability at 4 µM [1]	viability at 10 µM [1]	viability at 4 µM [2]	viability at 10 µM [2]	viability at 4 µM [3]	viability at 10 µM [3]	viability at 4 µM [4]	viability at 10 µM [4]	viability at 4 µM [5]	viability at 10 µM [5]	viability at 4 µM [6]	viability at 10 µM [6]	viability at 4 µM [7]	viability at 10 µM [7]
CCN(CC)C1CCN(c2c(C#N)c(NCc3ccc(Cl)cc3)nc3ccccc23)C1 (centres unmarked) [Compound 126CN, 2-(4-chloro-benzylamino)-3-cyano-4-[3-(diethylamino)pyrrolidin-1-yl]quinoline]	97%	93.3%	106%	103%	98.9%	96.1%	91.2%	87.6%	104%	102%	92.5%	89.9%	105%	99.6%
N#Cc1c(NCc2ccc(Cl)cc2)nc2ccccc2c1N1CCC(NC2CCCC2)C1 (centres unmarked) [Compound 134CN, 2-(4-chloro-benzylamino)-3-cyano-4-[3-(cyclopentyl-amino)pyrroli-din-1-yl]quinoline]	88.5%	50.6%	99.4%	91.7%	85.3%	70.5%	92.8%	64%	101%	81.3%	79.9%	29.1%	100%	89.5%
N#Cc1c(NCc2ccc(Cl)cc2)nc2ccccc2c1N1CCC(NC2CCOCC2)C1 (centres unmarked) [Compound 136CN, 2-(4-chloro-benzylamino)-3-cyano-4-{3-[(tetrahydro-2H-pyran-4-yl)-amino]pyrroli-din-1-yl}quinoline]	73.3%	17.4%	91.7%	63.6%	87.6%	50.5%	75.7%	21.8%	88.6%	44.1%	110%	17.4%	95.7%	32%
N#Cc1c(NCc2ccc(Cl)cc2)nc2ccccc2c1N1CCC(N2CCCC2)C1 (centres unmarked) [Compound 148CN, 2-(4-chloro-benzylamino)-3-cyano-4-[3-(pyrrolidin-1-yl)pyrrolidin-1-yl]quinoline]	93.5%	92.2%	102%	100%	91.9%	80.8%	88.2%	67%	104%	91.9%	94.1%	93.2%	92.9%	94.7%
N#Cc1c(NCc2ccc(Cl)cc2)nc2ccccc2c1N1CCC(Oc2ccccc2)C1 (centres unmarked) [Compound 3330CN, 2-(4-chlorobenzylamino)-3-cyano-4-(3-phenoxypyrrolidin-1-yl)quinoline]	76.8%	49.7%			70.6%	33.7%	30.4%	19%	99.4%	80.4%	92.9%	82.4%	102%	93.6%
Cc1ccc(OC2CCN(c3c(C#N)c(NCc4ccc(Cl)cc4)nc4ccccc34)C2)cc1 (centres unmarked) [Compound 3332CN, 2-(4-chlorobenzylamino)-3-cyano-4-[3-(4-methylphenoxy)pyrrolidin-1-yl]quinoline]	101%	87.2%			95.3%	58.3%	52%	25%	65.6%	62.5%	108%	103%	104%	94.1%
COc1ccc(OC2CCN(c3c(C#N)c(NCc4ccc(Cl)cc4)nc4ccccc34)C2)cc1 (centres unmarked) [Compound 3334CN, 2-(4-chlorobenzylamino)-3-cyano-4-[3-(4-methoxyphenoxy)pyrrolidin-1-yl]quinoline]	92.8%	88.6%			89.9%	94.4%	93.6%	91.2%	97.7%	89.1%	93.2%	90%	105%	96.5%
N#Cc1c(NCc2ccc(Cl)cc2)nc2ccccc2c1N1CCC(Oc2ccc(Cl)cc2)C1 (centres unmarked) [Compound 3336CN, 2-(4-chlorobenzylamino)-3-cyano-4-[3-(4-chlorophenoxy)pyrrolidin1--yl]quinoline]	99%	92%			95.6%	93.8%	82.8%	79.8%	75.4%	74.5%	106%	107%	98.8%	89.8%
N#Cc1c(NCc2ccc(Cl)cc2)nc2ccccc2c1N1CCC(Oc2ccc(F)cc2)C1 (centres unmarked) [Compound 3338CN, 2-(4-chlorobenzylamino)-3-cyano-4-[3-(4-fluorophenoxy)pyrrolidin-1-yl]quinoline]	94.3%	87.6%			96.9%	101%	93.3%	59.4%	98.8%	92.2%	94.9%	93.4%	112%	107%
N#Cc1c(NCc2ccc(Cl)cc2)nc2ccccc2c1N1CCC(Oc2cccc(F)c2)C1 (centres unmarked) [Compound 3340CN, 2-(4-chlorobenzylamino)-3-cyano-4-[3-(3-fluorophenoxy)pyrrolidin-1-yl]quinoline]	101%	86.3%			85.6%	39.9%	65.7%	36.4%	98.9%	90.8%	95.9%	90.8%	96%	97.7%
N#Cc1c(NCc2ccc(Cl)cc2)nc2ccccc2c1N1CCC(Oc2ccncc2)C1 (centres unmarked) [Compound 3344CN, 2-(4-chlorobenzylamino)-3-cyano-4-{3-[(pyridin-4-yl)oxy]pyrrolidin-1-yl}quinoline]	91.6%	48%			50.2%	40.1%	81.9%	52.6%	94.1%	62.7%	83.7%	60.3%	103%	57.8%
Cc1nccnc1OC1CCN(c2c(C#N)c(NCc3ccc(Cl)cc3)nc3ccccc23)C1 (centres unmarked) [Compound 3362CN, 2-(4-chlorobenzylamin)-3-cyano-4-{3-[(3-methylpyrazin-2-yl)oxy]pyrrolidin-1-yl}quinoline]	46.8%	31.4%			66.7%	35.1%	15.3%	5.6%	78.5%	52.5%	81.6%	68.6%	105%	88.6%
